Source: PubChem BioAssay AID504816 (The Scripps Research Institute Molecular Screening Center, 2011)
Calls of active or inactive are those of the source.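 The calls were made as follows: active = compounds that boost mutant procaspase-3 substrate cleavage with EC50 of 10000 nM or lower; inactive = EC50 above 10000 nM.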

Target: Caspase-3 (Homo sapiens) (UniProt P42574)
Experiment: activators of human procaspase-3 D3A mutant, late-stage follow-up, biochemical, absorbance, PC-3 D3A mutant, powder samples (AID 504816)
Conditions: recombinant PC-3 D3A, Ac-DEVD-pNA absorbance 405 nm

Chain of Caspase-3 (Homo sapiens) (P42574 whole entry D9A/D28A/D175A): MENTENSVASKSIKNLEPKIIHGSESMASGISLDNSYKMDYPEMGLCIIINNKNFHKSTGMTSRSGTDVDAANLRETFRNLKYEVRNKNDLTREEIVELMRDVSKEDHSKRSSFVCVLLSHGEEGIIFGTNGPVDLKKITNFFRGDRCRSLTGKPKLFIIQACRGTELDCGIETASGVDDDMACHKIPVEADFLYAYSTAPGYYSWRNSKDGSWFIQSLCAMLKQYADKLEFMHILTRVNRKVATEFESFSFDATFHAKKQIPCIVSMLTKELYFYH

## COc1ccccc1Nc1nc2c(C)cccc2cc1C#N
  EC50: > 85.3 µM (inactive)

## C=CCn1c(=NC(=O)c2cc(-c3cccs3)nc3ccccc23)sc2cc(S(N)(=O)=O)ccc21
  EC50: 3.19 µM

## CC(NC(=O)c1cc2cc([N+](=O)[O-])ccc2oc1=O)C1CCCO1 (centres undefined)
  EC50: inactive

## CC(=O)Oc1cccc2c1C(=O)c1c(OC(C)=O)cc(C(=O)O)cc1C2=O
  EC50: inactive
